Data taken from patent US11130752B2, “Aminopyrimidine compound” (Cardurion Pharmaceuticals, LLC, priority 2018, dated 2021).
Structures can show the parent of a compound that is named as a salt.

Biological target: T1, human CaMKIIδ (Homo sapiens, UniProt Q13557)
T1 construct: Full-length, glutathione-S-transferase(GST)-tagged, human CaMKIIδ was purchased from Carna Biosciences; purchased Carna Biosciences (CaMKIIδ); Wako Pure Chemical Industries (calmodulin) 02-111
Experiment: In vitro CaMKII inhibitory activity (binding assay, TR-FRET)
Settings: activity ranks
Protocol: Evaluation of In Vitro CaMKII Inhibitory Activity (Binding Assay)
In vitro CaMKIIδ inhibitory activity was evaluated by a binding assay.
Full-length, glutathione-S-transferase(GST)-tagged, human CaMKIIδ was purchased from Carna Biosciences (product #02-111, Kobe, Japan). Full-length bovine calmodulin was purchased from Wako Pure Chemical Industries (Osaka, Japan). Terbium-labeled anti-GST antibody (Tb-anti-GST Ab) was purchased from Life Technologies (Carlsbad, Calif., USA). Boron-dipyrromethene (BODIPY)-labeled probe ligand was synthesized as described below.
Time-Resolved Fluorescence Resonance Energy Transfer (TR-FRET) Assay
All assays were conducted using 384-well, white, flat-bottomed plates (product #784075, Greiner Bio-One, Frickenhausen, Germany) in kinase assay buffer, which consists of 50 mM HEPES pH 7.6, 10 mM MgCl2, 1 mM EGTA, 0.01% Brig-35, 0.1 mM DTT). The fluorescent probe ligand was added at a final concentration of 300 nM to solutions containing 0.21 nM Tb-anti-GST Ab, 1 mM CaCl2, 10 μg/mL calmodulin, and 0.5 nM GST-tagged CaMKIIδ. After shaded incubation of the protein-probe mixture on ice for 30 min, the premix was dispensed in the assay plate including test inhibitors with 4 fold dilution series of eight concentrations. After 1 hr incubation at room temperature, TR-FRET signals were measured in duplicate using an EnVision microplate reader (Perkin Elmer, Waltham, Mass., USA). The solution in each well was excited with a laser (λ=340 nm) reflected by a dichroic mirror (D400/D505 (Perkin Elmer) through an excitation filter (UV (TRF) 340, (Perkin Elmer)), and fluorescence from Tb and BODIPY were detected through two emission filters (CFP 495 (Perkin Elmer) for Tb, Emission 520 (Perkin Elmer) for BODIPY).
The percentage of inhibition of test compounds was calculated according to equation (1) Inhibition(%)=100×(μH−T)/(μH−μL) (1)
Where T is the value of the wells containing test compounds and μH and μL are the mean values of the 0% and 100% inhibition control wells, respectively. The values of the 0 and 100% controls were the signals obtained in the absence and presence of 3 μM its parent compound, respectively. The half maximal inhibitory concentration (IC50) of test compounds was calculated by fitting the data with the logistic equation using XLfit (IDBS, Guildford, UK). The IC50 was classified according to the following activity ranks.

[1] = Table 1, GST-tagged human CaMKIIδ
[2] = Table 4, GST-tagged human CaMKIIδ

COCCOCCOc1nn([C@H]2CC[C@H](N3C[C@@H](C)O[C@@H](C)C3)CC2)cc1Nc1ncc(-c2ccc(Cl)c(O[C@@H](C)Cn3cnnn3)c2)cn1 [Example 240, 5-(3-(((S)-1-(1H-tetrazol-1-yl)propan-2-yl)oxy)-4-chlorophenyl)-N-(1-((1r,4r)-4-((2S,6R)-2,6-dimethylmorpholino)cyclohexyl)-3-(2-(2-methoxyethoxy)ethoxy)-1H-pyrazol-4-yl)pyrimidin-2-amine hydrochloride]
IC50 [1]: < 10 nM

CCOCCCOc1nn([C@H]2CC[C@H](N3[C@@H]4CC[C@H]3COC4)CC2)cc1Nc1ncc(-c2ccc(Cl)c(O[C@@H](C)Cn3cnnn3)c2)cn1 [Example 242, 5-(3-(((S)-1-(1H-tetrazol-1-yl)propan-2-yl)oxy)-4-chlorophenyl)-N-(1-((1r,4r)-4-((1R,5S)-3-oxa-8-azabicyclo[3.2.1]octan-8-yl)cyclohexyl)-3-(3-ethoxypropoxy)-1H-pyrazol-4-yl)pyrimidin-2-amine]
IC50 [1]: < 10 nM

C[C@@H](Cn1cnnn1)Oc1cc(-c2cnc(Nc3cn([C@H]4CC[C@H](N5[C@@H]6CC[C@H]5COC6)CC4)nc3OCCO)nc2)ccc1Cl [Example 243, 2-((4-((5-(3-(((S)-1-(1H-tetrazol-1-yl)propan-2-yl)oxy)-4-chlorophenyl)pyrimidin-2-yl)amino)-1-((1r,4r)-4-((1R,5S)-3-oxa-8-azabicyclo[3.2.1]octan-8-yl)cyclohexyl)-1H-pyrazol-3-yl)oxy)ethan-1-ol]
IC50 [1]: < 10 nM

C[C@@H](Cn1cnnn1)Oc1cc(-c2cnc(Nc3cn([C@H]4CC[C@H](N5[C@@H]6CC[C@H]5COC6)CC4)nc3OCCO)nc2)ccc1C#N [Example 244, 2-(((S)-1-(1H-tetrazol-1-yl)propan-2-yl)oxy)-4-(2-((1-((1r,4r)-4-((1R,5S)-3-oxa-8-azabicyclo[3.2.1]octan-8-yl)cyclohexyl)-3-(2-hydroxyethoxy)-1H-pyrazol-4-yl)amino)pyrimidin-5-yl)benzonitrile]
IC50 [1]: < 10 nM

C[C@@H](Cn1cnnn1)Oc1cc(-c2cnc(Nc3cn([C@H]4CC[C@H](N5CCOCC5)CC4)nc3O)nc2)ccc1C#N [Example 461, 2-(((S)-1-(1H-tetrazol-1-yl)propan-2-yl)oxy)-4-(2-((3-hydroxy-1-((1r,4r)-4-morpholinocyclohexyl)-1H-pyrazol-4-yl)amino)pyrimidin-5-yl)benzonitrile]
IC50 [1]: < 10 nM

C[C@@H](Cn1cnnn1)Oc1cc(-c2cnc(Nc3cn([C@H]4CC[C@H](N5CCOCC5)CC4)nc3O)nc2)ccc1Cl [Example 462, 4-((5-(3-(((S)-1-(1H-tetrazol-1-yl)propan-2-yl)oxy)-4-chlorophenyl)pyrimidin-2-yl)amino)-1-((1r,4r)-4-morpholinocyclohexyl)-1H-pyrazol-3-ol]
IC50 [1]: < 10 nM

C[C@@H]1CN([C@H]2CC[C@H](n3cc(Nc4ncc(-c5ccc(Cl)c(O[C@@H](C)Cn6cnnn6)c5)cn4)c(OCc4nncn4C)n3)CC2)C[C@H](C)O1 [Example 473, 5-(3-(((S)-1-(1H-tetrazol-1-yl)propan-2-yl)oxy)-4-chlorophenyl)-N-(1-((1r,4r)-4-((2S,6R)-2,6-dimethylmorpholino)cyclohexyl)-3-((4-methyl-4H-1,2,4-triazol-3-yl)methoxy)-1H-pyrazol-4-yl)pyrimidin-2-amine]
IC50 [2]: < 10 nM

C[C@@H]1CN([C@H]2CC[C@H](n3cc(Nc4ncc(-c5ccc(Cl)c(O[C@@H](C)Cn6cnnn6)c5)cn4)c(OCCCOCCO)n3)CC2)C[C@H](C)O1 [Example 474, 2-(3-((4-((5-(3-(((S)-1-(1H-tetrazol-1-yl)propan-2-yl)oxy)-4-chlorophenyl)pyrimidin-2-yl)amino)-1-((1r,4r)-4-((2S,6R)-2,6-dimethylmorpholino)cyclohexyl)-1H-pyrazol-3-yl)oxy)propoxy)ethan-1-ol]
IC50 [2]: < 10 nM

C[C@@H]1CN([C@H]2CC[C@H](n3cc(Nc4ncc(-c5ccc(Cl)c(O[C@@H](C)Cn6cnnn6)c5)cn4)c(OCCCO)n3)CC2)C[C@H](C)O1 [Example 475, 3-((4-((5-(3-(((S)-1-(1H-tetrazol-1-yl)propan-2-yl)oxy)-4-chlorophenyl)pyrimidin-2-yl)amino)-1-((1r,4r)-4-((2S,6R)-2,6-dimethylmorpholino)cyclohexyl)-1H-pyrazol-3-yl)oxy)propan-1-ol]
IC50 [2]: < 10 nM

Cc1ncc(COc2nn([C@H]3CC[C@H](N4C[C@@H](C)O[C@@H](C)C4)CC3)cc2Nc2ncc(-c3ccc(C#N)c(O[C@@H](C)Cn4cnnn4)c3)cn2)s1 [Example 476, 2-(((S)-1-(1H-tetrazol-1-yl)propan-2-yl)oxy)-4-(2-((1-((1r,4r)-4-((2S,6R)-2,6-dimethylmorpholino)cyclohexyl)-3-((2-methylthiazol-5-yl)methoxy)-1H-pyrazol-4-yl)amino)pyrimidin-5-yl)benzonitrile]
IC50 [2]: < 10 nM

COC(C)(C)CCOc1nn([C@H]2CC[C@H](N3C[C@@H](C)O[C@@H](C)C3)CC2)cc1Nc1ncc(-c2ccc(C#N)c(O[C@@H](C)Cn3cnnn3)c2)cn1 [Example 478, 2-(((S)-1-(1H-tetrazol-1-yl)propan-2-yl)oxy)-4-(2-((1-((1r,4r)-4-((2S,6R)-2,6-dimethylmorpholino)cyclohexyl)-3-(3-methoxy-3-methylbutoxy)-1H-pyrazol-4-yl)amino)pyrimidin-5-yl)benzonitrile]
IC50 [2]: < 10 nM

C[C@@H]1CN([C@H]2CC[C@H](n3cc(Nc4ncc(-c5ccc(C#N)c(O[C@@H](C)Cn6cnnn6)c5)cn4)c(OCC4COC4)n3)CC2)C[C@H](C)O1 [Example 479, 2-(((S)-1-(1H-tetrazol-1-yl)propan-2-yl)oxy)-4-(2-((1-((1r,4r)-4-((2S,6R)-2,6-dimethylmorpholino)cyclohexyl)-3-(oxetan-3-ylmethoxy)-1H-pyrazol-4-yl)amino)pyrimidin-5-yl)benzonitrile]
IC50 [2]: < 10 nM

C[C@@H]1CN([C@H]2CC[C@H](n3cc(Nc4ncc(-c5ccc(Cl)c(O[C@@H](C)Cn6cnnn6)c5)cn4)c(OCC4COC4)n3)CC2)C[C@H](C)O1 [Example 480, 5-(3-(((S)-1-(1H-tetrazol-1-yl)propan-2-yl)oxy)-4-chlorophenyl)-N-(1-((1r,4r)-4-((2S,6R)-2,6-dimethylmorpholino)cyclohexyl)-3-(oxetan-3-ylmethoxy)-1H-pyrazol-4-yl)pyrimidin-2-amine]
IC50 [2]: < 10 nM

C[C@@H]1CN([C@H]2CC[C@H](n3cc(Nc4ncc(-c5ccc(Cl)c(O[C@@H](C)Cn6cnnn6)c5)cn4)c(OCCO)n3)CC2)C[C@H](C)O1 [Example 481, 2-((4-((5-(3-(((S)-1-(1H-tetrazol-1-yl)propan-2-yl)oxy)-4-chlorophenyl)pyrimidin-2-yl)amino)-1-((1r,4r)-4-((2S,6R)-2,6-dimethylmorpholino)cyclohexyl)-1H-pyrazol-3-yl)oxy)ethan-1-ol]
IC50 [2]: < 10 nM

C[C@@H]1CN([C@H]2CC[C@H](n3cc(Nc4ncc(-c5ccc(Cl)c(O[C@@H](C)Cn6cnnn6)c5)cn4)c(OC[C@@H](C)O)n3)CC2)C[C@H](C)O1 [Example 482, (R)-1-((4-((5-(3-(((S)-1-(1H-tetrazol-1-yl)propan-2-yl)oxy)-4-chlorophenyl)pyrimidin-2-yl)amino)-1-((1r,4r)-4-((2S,6R)-2,6-dimethylmorpholino)cyclohexyl)-1H-pyrazol-3-yl)oxy)propan-2-ol]
IC50 [2]: < 10 nM

C[C@@H]1CN([C@H]2CC[C@H](n3cc(Nc4ncc(-c5ccc(C#N)c(O[C@@H](C)Cn6cnnn6)c5)cn4)c(OCC4CCOCC4)n3)CC2)C[C@H](C)O1 [Example 483, 2-(((S)-1-(1H-tetrazol-1-yl)propan-2-yl)oxy)-4-(2-((1-((1r,4r)-4-((2S,6R)-2,6-dimethylmorpholino)cyclohexyl)-3-((tetrahydro-2H-pyran-4-yl)methoxy)-1H-pyrazol-4-yl)amino)pyrimidin-5-yl)benzonitrile]
IC50 [2]: < 10 nM

COCCOCCCOc1nn([C@H]2CC[C@H](N3CCOCC3)CC2)cc1Nc1ncc(-c2ccc(C#N)c(O[C@@H](C)Cn3cnnn3)c2)cn1 [Example 490, 2-(((S)-1-(1H-tetrazol-1-yl)propan-2-yl)oxy)-4-(2-((3-(3-(2-methoxyethoxy)propoxy)-1-((1r,4r)-4-morpholinocyclohexyl)-1H-pyrazol-4-yl)amino)pyrimidin-5-yl)benzonitrile]
IC50 [2]: < 10 nM

C[C@@H](Cn1cnnn1)Oc1cc(-c2cnc(Nc3cn([C@H]4CC[C@H](N5CCOCC5)CC4)nc3OCC3COC3)nc2)ccc1Cl [Example 491, 5-(3-(((S)-1-(1H-tetrazol-1-yl)propan-2-yl)oxy)-4-chlorophenyl)-N-(1-((1r,4r)-4-morpholinocyclohexyl)-3-(oxetan-3-ylmethoxy)-1H-pyrazol-4-yl)pyrimidin-2-amine]
IC50 [2]: < 10 nM
